Columns and labels:
[1] = tested on: mouse model of generalised seizure (tonic hind limb extensor convulsions); experiment: Maximal electroshock seizure threshold (MEST) test in the mouse; conditions: 2.5 mg/kg i.p., 30 min post dose
Method: The efficacy of the novel resorcinol according to the compound of Formula I was tested in a mouse model of generalised seizure, the maximal electroshock seizure threshold (MEST) test.
(§1) In the MEST test the ability of a drug to alter the seizure threshold current required to induce hind limb tonic extensor convulsions is measured according to an “up and down” method of shock titration (Kimball et al., 1957). An increase in seizure threshold is indicative of anti-convulsant effect.
(§2) The ability of a test compound to alter the stimulus intensity, expressed as current (mA), required to induce the presence of tonic hind limb extensor convulsions, is assessed in the MEST.
(§3) All animals were weighed at the beginning of the study and randomly assigned to treatment groups based on a mean distribution of body weight across groups.
The first animal within a treatment group was given a shock at the expected or estimated CC50 current. For subsequent animals, the current was lowered or raised depending on the convulsions outcome from the preceding animal, in intervals of 5 mA.
(§4) Data generated from each treatment group were used to calculate the CC50±SEM values for the treatment group.
Vehicle: (5% ethanol, 5% Kolliphor® EL, 90% Saline) was prepared as follows: 2 mL of ethanol, 2 mL of Kolliphor® EL were warmed to 60° C., in 36 mL of saline (1:1:18).
The test compound, described herein as Compound I, is as shown as Formula I. Test compound was administered at 1, 5, 20, 50, 100 and 200 mg/kg (i.p.) in a 1:2:17 ethanol:solutol:0.9% saline formulation.
(§5) The data for each treatment group were recorded as the number of +'s and 0's at each current level employed and this information is then used to calculate the CC50 value (current required for 50% of the animals to show seizure behaviour)±standard error.
(§6) Test compound effects were also calculated as percentage change in CC50 from the vehicle control group.
(§7) Significant difference between drug-treated animals and controls were assessed according to Litchfield and Wilcoxon (1949).

[2] = tested on: mouse model of generalised seizure (tonic hind limb extensor convulsions); experiment: mini-MEST (maximal electroshock seizure threshold, minimal sample sizes) test in the mouse; conditions: 2.5 mg/kg i.p., 30 min post dose
Method: The maximal electroshock seizure threshold (MEST) test is widely utilized preclinically to evaluate pro- or anti-convulsant properties of test compounds (Loscher et al., 1991).
as §1, §2, §3
The first animal within a treatment group was given a shock at the expected or estimated CC50 current. For subsequent animals, the current was lowered or raised depending on the convulsions outcome from the preceding animal in log scale intervals.
as §4
Vehicle: (5% ethanol, 10% solutol in 85% Saline) was prepared as follows: 1 mL of ethanol, 2 mL of solutol were warmed to 60° C., in 17 mL of saline (1:2:17).
The test compound, described herein as Compound I, is as shown as Formula I. Test compound was administered at 50 mg/kg (i.p.) in a 1:2:17 ethanol:solutol:0.9% saline formulation.
as §5, §6, §7

DBA/2 mice = experiment: DBA/2 mouse audiogenic seizure test; format: in vivo; conditions: 180 mg/kg i.p.
Description: The DBA/2 audiogenic seizure test, which detects anticonvulsant activity, follows that described by Dürmüller et al. (NeuroReport, vol. 4, no. 6, pages 683-686, 1993).
60 male DBA/2 mice (3-4 weeks old) were included in the experiment (weight range 8-11 g at the beginning of the experiment). Animals were acclimatized to the test facility for 1 day after delivery and randomly housed in groups of 5 in macrolon cages on wood litter with free access to food and water.
Mice were individually transferred (at 3-5 minutes intervals) from the preparation room into an adjacent experimental room and body temperature was measured using a rectal thermometer. Immediately after, they were placed in a Plexiglas jar (Diameter=40 cm; Height=35 cm) mounted with an electric bell. Upon activating the bell, the occurrences and latencies to wild running fits, clonic and tonic seizures were measured. Deaths were also recorded. The bell was activated until a tonic seizure occured or for a maximum of 60 seconds.
The experiment included 6 groups (10 mice were studied per group). Experimenters were blinded to the treatment groups.
The test substance was evaluated at 4 doses, administered i.p. (10 mL/kg) 30 or 60 minutes before the test, and compared with a vehicle control group. Doses and pre-treatment times were based on previous pharmacokinetic data.
(§8) Test compound: Compound I dissolved in 5% ethanol, 10% Kolliphor HS15, 85% physiological saline.
(§9) Vehicle control: 5% ethanol, 10% Kolliphor HS15, 85% physiological saline.
Reference: Valproate (180 mg/kg), dissolved in 5% ethanol, 10% Kolliphor HS15, 85% physiological saline.
Quantitative data (latencies) with the test substance were analyzed by comparing treated groups with vehicle control using Kruskal-Wallis test followed by Dunn's multiple comparisons test. Quantitative data with the reference substance were analyzed using Mann-Whitney U test.
Quantal data (frequencies) were analyzed by comparing treated groups with vehicle control using Fisher's Exact Probability tests.

RjOrl: Swiss mice = experiment: Mouse 6 Hz (44 mA) psychomotor seizure test; format: in vivo; conditions: 300 mg/kg i.p.
Description: The 6 Hz Psychomotor Test, which detects anticonvulsant activity, follows that described by Brown et al. (J. Pharmacol. Exp. Ther. 107, 273-283, 1953).
Male RjOrl: Swiss mice, 5 weeks old, weighing 28-38 g at the beginning of the experiment. Animals were acclimatized to the test facility for at least 5 days after delivery and randomly housed in groups of 3-4 in macrolon cages on wood litter with free access to food and water.
Before transcorneal stimulation, a drop of tetracaine solution (2%) was applied on each eye of the mouse for local anesthesia. Between 1-10 minutes later, at the pre-treatment time specified for the test compound, the mice were administered a rectangular current (44 mA, rectangular pulse: 0.2 ms pulse width, 3 s duration, 6 Hz) via corneal electrodes connected to a constant current shock generator.
The number of seizures as reflected by forelimb clonus were recorded immediately after current administration. Forelimb clonus was scored as absent (0=no forelimb clonus), mild (1=clonus with one forelimb) and strong (2=clonus with both forelimbs).
[…] The experimenters were blinded to the treatment. The cages were randomly assigned to a treatment code, each designating one treatment group.
Compound I was administered intraperitoneally at 20 and 50 mg/kg, 30 minutes before the test, and at 100 and 200 mg/kg, 60 minutes before the test and were compared with the vehicle control (5% ethanol, 10% […], 85% physiological saline).
Valproate (300 mg/kg i.p.), administered 30 minutes before the test, was used as reference substance and was compared with the vehicle control (5% ethanol, 10% Kolliphor HS15, 85% physiological saline).
as §8, §9
Reference: Valproate (300 mg/kg), dissolved in 5% ethanol, 10% Kolliphor HS15, 85% physiological saline.
Data were assumed to be non-normally distributed based on validation data, therefore non-parametric tests were utilized. Quantitative data (scores) with the test substance were analyzed by comparing treated groups with the corresponding vehicle control using Kruskal-Wallis test with Dunn's multiple comparisons test when the Kruskal-Wallis Test was significant. Quantitative data with the reference substance was analysed using Mann-Whitney U test.

[3] = 30 min before the test, bell maximum 60 seconds
[4] = 30 min before the test, listed as valproate

`CN1C(=O)CN=C(c2ccccc2)c2cc(Cl)ccc21` [Diazepam, diazepam, reference compound] was tested, and the “% change from vehicle (CC50)” value [1] was 449% and the “% change from vehicle (CC50)” value [2] was 279%.
For `CCCC(CCC)C(=O)O` [Valproate, reference compound], the Adverse signs (DBA/2 mice) was “No adverse signs were noted”, the “Clonic convulsion, Presence, %” value (DBA/2 mice; 30 min before the test) was 0% and the “Clonic convulsion, Presence, Compared with Vehicle (i.p.) %” value (DBA/2 mice; 30 min before the test) was −100%. For the same compound, the “Clonic convulsion, Presence, Total” value (DBA/2 mice; 30 min before the test) was 0/10, the “Death, Presence, %” value (DBA/2 mice; 30 min before the test) was 0% and the “Death, Presence, Compared with Vehicle (i.p.) %” value (DBA/2 mice; 30 min before the test) was −100%. For the same compound, the “Death, Presence, Total” value (DBA/2 mice; 30 min before the test) was 0/10, the “Tonic extension, Presence, %” value (DBA/2 mice; 30 min before the test) was 0% and the “Tonic extension, Presence, Compared with Vehicle (i.p.) %” value (DBA/2 mice; 30 min before the test) was −100%. The “Tonic extension, Presence, Total” value (DBA/2 mice; 30 min before the test) was 0/10, the “Wild running, Presence, %” value (DBA/2 mice; 30 min before the test) was 0% and the “Wild running, Presence, Compared with Vehicle (i.p.) %” value (DBA/2 mice; 30 min before the test) was −100%. For the same compound, the “Wild running, Presence, Total” value (DBA/2 mice; 30 min before the test) was 0/10, the “Clonic convulsion, Latency (s) Median” value (DBA/2 mice; [3]) was 60.0 s and the “Tonic extension, Latency (s) Median” value (DBA/2 mice; [3]) was 60.0 s. The “Wild running, Latency (s) Median” value (DBA/2 mice; [3]) was 60.0 s, the “Clonic convulsion, Presence, Compared with Vehicle (i.p.) %” value (DBA/2 mice; [4]) was −100% and the “Tonic extension, Presence, Compared with Vehicle (i.p.) %” value (DBA/2 mice; [4]) was −100%. For the same compound, the “Wild running, Presence, Compared with Vehicle (i.p.) %” value (DBA/2 mice; [4]) was −100%, the “Slight sedation (mice affected)” value (RjOrl: Swiss mice) was “One mouse out of the 15 tested” and the “Forelimb clonus, Compared with Vehicle B (i.p.) %” value (RjOrl: Swiss mice; 30 minutes before the test) was −88%. The “Forelimb clonus, Compared with Vehicle B (i.p.) %” value (RjOrl: Swiss mice; 30 minutes before the test, listed as valproate) was −88% and the “Forelimb clonus (mean ± s.e.m.)” value (RjOrl: Swiss mice; 30 minutes before the test, score 0-2) was 0.1 ± 0.1.

— patent US20240238218A1, “[…] A […] ACTIVE COMPOUND AND METHOD OF PREPARATION THEREOF” (GW Research Limited, priority 2021, published 2024)
